We go through two compounds from US20210246128A1, “BICYCLE TOPOISOMERASE I INHIBITING COMPOUNDS, PROCESS FOR PREPARATION AND USE THEREOF” (Council of Scientific & Industrial Research, priority 2018, published 2021).

Like-named read-outs stand apart in the source and are kept apart here.

One series in a line: Plasma stability assay. The series is classed as in vitro ADME. The settings on record: pH 7.4, 37° C., 1 μM. As to the method:
The stock solution of 10 mM of test compound in DMSO was prepared and stored at 4° C. 25 μM stock of test compound was prepared in acetonitrile: water by diluting from 10 mM stock (i.e. 2.5 μL of 10 mM stock solution was added to 997.5 μL of acetonitrile: water (50:50). The frozen plasma was thawed at room temperature and centrifuged at 1400×RCF (relative centrifugal force) 4° C., for 15 minutes. Approximately 90% of the clear supernatant fraction was transferred to a separate tube and was used for the assay.
For 0 min samples, plasma was heat inactivated at 56° C. for 45 min. To 72 μL of heat inactivated plasma, 3 μL of 25 μM test compound was added. A 25 μL aliquot of the mixture was taken and crashed with 200 μL of acetonitrile containing internal standard and further processed along with other time points. For other time point samples, final working stock of 1 μM was prepared by diluting in plasma (i.e. 8 μL of 25 μM acetonitrile:water stock was added to 192 μL of plasma). 200 μL of plasma containing the test compound was incubated for 2 hrs at 37° C. in shaker water bath with gentle shaking. 25 μL aliquot of sample at 0, 15, 30, 60 and 120 min was precipitated immediately with 200 μL of acetonitrile containing internal standard and centrifuged at 4000×RCF, 4° C. for 20 minutes. 150 μL of supernatant was diluted with 150 μL of water and analyzed on LC-MS/MS.

Series [1] can be described thus: Solubility assay (pH 7.4 pION buffer, UV). It counts as physicochemical. The conditions noted are these: pH 7.4 buffer, 18 hours incubation. As to the method: 5 μL of 20 mM DMSO stock from the stock plate was added to the reaction deep well plate containing 495 μL of pH 7.4 pION buffer (including DMSO control) respectively and the samples were mixed and incubated for 18 hours. The plate was sealed well during the incubation process. The DMSO content in the sample was <1.0%. The concentration in deep well plates was 200 μM. 4 μL of 20 mM stock (including DMSO control) was added to 996 μL of acetonitrile to prepare the working stock plate. 75 μL of working stock was added to 75 μL of blank buffer and read on spectrophotometer as reference plate at 240 nm. At the end of the incubation period, 100 μL of sample from storage plate was vacuum filtered using a filter plate. This step wets the filters and the filtrate was discarded. Another 200 μL of the sample from deep well plate was vacuum filtered in to a new filter collection plate. 75 μL of the filtrate from the filter collection plate was transferred to a UV sample plate. 75 μL of acetonitrile was added to this UV plate. The solution was mixed and the spectrum was read using the UV spectrophotometer at 240 nm. Plates were read on spectramax using SoftMax Pro software version 5.3.

Another series has as its system TDP1+/+ MEFs. Description: Cytotoxicity assay, TDP1+/+ MEFs. The series is classed as cell-based. How it is done:
(§1) The percent inhibition of viability for each concentration of compound was calculated with respect to the control and IC50 (μM) values were estimated. Each point corresponds to the mean±S.D of at least three experiments in duplicates. Error bars represent SD (n=3).

For the next series, the system named is TDP1−/− cells. Kind of series: Cytotoxicity assay, TDP1−/−. The conditions noted are these: read-out: IC50 cytotoxicity TDP1−/−. As to the method: as §1
The subject of a further series is MCF7 cells. Description: γH2AX assay (immunofluorescence confocal microscopy). It counts as cell-based, human. The conditions noted are these: after washing out from media. As to the method: Quantification of comparative ability of CPT and 18 to form DSBs was quantified after 3 hours and 5 hours by measuring γH2AX intensity per nucleus after treatment and after the removal of 18 or CPT was obtained from immunofluorescence confocal microscopy. […] But CPT-induced γH2AX have a short half-life. […] (T. Furuta. J. Biol. Chem. 2003, 278, 20303-20312).

Another series has as its system Caco-2 cell monolayer. The conditions noted are these: cited from earlier work.
In series [2] the test system is noncancerous human embryonic kidney (HEK293) cells. Description: Cytotoxicity assay, HEK293. The settings on record: read-out: IC50 cytotoxicity HEK293; HEK293 (noncancerous).
The nature of series [3]: Caco-2 permeability (21 day culture of Caco-2 cell monolayer). It counts as in vitro ADME. The settings on record: human; for recovery at 120 min, 10 μM: Caco-2, pH 7.4, Caco-2. As to the method: 5 mL of 100 mM sodium pyruvate, 5 mL of 10× non-essential amino acids, 5 mL of penstrep were added to 100 mL of heat inactivated foetal bovine serum to 385 mL of DMEM aseptically and mixed thoroughly. One vial of Hank's balanced salt (Sigma-H1387) was dissolved in 900 mL of milli Q water; adjusted the pH to 7.4 and made up the volume to 1000 mL with the same. The solution was filter sterilized and stored at 4° C. Stock solution of test compound (10 mM) was prepared in DMSO. 10 mM stock was diluted with HBSS Buffer to a final concentration of 10 μM.
250 μL of DMEM was added to the basal compartment of 96 well multi-screen Caco-2 plate and seeded 12000 cells/well (0.16×10^6 cells/ml) in all the apical wells required and one well with only media as blank without cells, placed the Caco-2 plate in CO2 incubator at 37° C. for proliferation of cells.
On the day of assay, medium was removed and washed twice with HBSS Buffer and incubated with HBSS buffer for 30 min in an incubator and wells with TEER values >230 ohm·cm^2 were selected for the incubation. 75 μL of test compound was added to apical wells and 250 μL of HBSS buffer with 2% BSA was added to basal wells. 25 μL of basal samples was collected at 120 min and processed as stated below.
250 μL of test compound was added to basal wells and 75 μL of HBSS buffer with 2% BSA was added to apical wells. 25 μL of apical samples was collected at 120 min and processed as stated below.
Single point calibration curve in HBSS buffer with 2% BSA was used. Donor samples were diluted 1:1 with HBSS containing 2% BSA and receiver samples were diluted with 1.1 HBSS buffer and precipitated with 200 μL of acetonitrile containing internal standard and vortexed for 5 min @ 1000 rpm, centrifuged at 4000 rpm for 10 min. Finally 100 μL of supernatant was diluted with 200 μL of water and submitted for LC-MS/MS analysis.

The subject of the next series is calf thymus (CT) DNA. Description: Ethidium bromide (EtBr) displacement assay. The series is classed as binding. The conditions noted are these: 1 μM EtBr, 5 nM CT DNA, 0-200 μM compound.
In series [4] the test system is human colon carcinoma cell lines (HCT116). Kind of series: Cytotoxicity assay, HCT116. The conditions noted are these: HCT-116, read-out: IC50 cytotoxicity HCT116.
Series [5] can be described thus: Cytotoxicity assay, HEK293. The conditions noted are these: human.
Series [6] relates to human ovarian adenocarcinoma cell lines (NIH:OVCAR-3). Kind of series: Cytotoxicity assay, NIH:OVCAR-3. The conditions noted are these: OVCAR-3, read-out: IC50 cytotoxicity NIH:OVCAR-3.
Series [7] can be described thus: Lipophilicity assay (octanol/buffer Log D). The conditions noted are these: octanol / sodium phosphate buffer pH 7.4.

Regarding `CC[C@@]1(O)C(=O)OCc2c1cc1n(c2=O)Cc2cc3ccccc3nc2-1` [Camptothecin, reference compound], the “Mean % remaining at 2 hrs in human Plasma” value in the series “Plasma stability assay” turned out to be 15.70%. Further, the “Avg. Solubility (μg/mL) at pH 7.4” value in series [1] is on record as 2.5 μg/mL. Also, the IC50 amounted to 2800 ± 470 nM with TDP1+/+ MEFs, 1570 ± 210 nM with TDP1−/− cells (TDP1−/−) and 8750 ± 630 nM in series [2]. In addition, the “persistence of γH2AX foci / DSBs after removal of drug” value with MCF7 cells is given as “faster disappearance of γH2AX foci”. The “Papp Apical to Basal” value in the series with Caco-2 cell monolayer is reported as 10.5 10^−6 cm/sec. For the same compound, the “Papp Basal to Apical” value with Caco-2 cell monolayer is reported as 35.8 10^−6 cm/sec.
On to `COc1ccc(-c2ccc3ncc(-c4nnco4)c(NCCCn4ccnc4)c3c2)cc1` [Compound 18, N-(3-(1H-imidazol-1-yl)propyl)-6-(4-methoxyphenyl)-3-(1,3,4-oxadiazol-2-yl)quinolin-4-amine], for which the “Mean % remaining at 2 hrs in human Plasma” value in “Plasma stability assay” was determined as 93.34%. Moreover, the results for the recovery at 120 min, 10 μM in [3] (read-out: A to B % Recovery) and in series [3] (read-out: B to A % Recovery) were 33.2% and 44.2%, respectively. Moreover, the Papp A→B at 120 min, 10 μM in series [3] (pH 7.4, Caco-2, 10 μM, 120 min, read-out: Papp Apical to Basal) was 7.42 ×10⁻⁶ cm/s. Further, the Papp B→A at 120 min, 10 μM in series [3] (pH 7.4, Caco-2, 10 μM, 120 min, read-out: Papp Basal to Apical) is 11.6 ×10⁻⁶ cm/s. The IC50 worked out at 1020 nM with TDP1−/− cells, 2340 nM in [4], 8340 nM in [5] and 2350 nM in [6]. For the same compound, the “displacement of bound EtBr (DNA intercalation)” value with calf thymus (CT) DNA is listed as “no displacement of fluorophore even at high concentration (200 μM)”. Besides, the “persistence of γH2AX foci / DSBs after removal of drug” value in the series with MCF7 cells is “persistent and less reversible DNA double-strand breaks (DSBs)”. The “Log D @ pH 7.40 Mean” value in series [7] was determined as 2.48.
